Measured values as given in patent US6288100A, “Benzimidazole derivatives” (American Home Products Corporation, priority 1995, dated 2001).
Counter-ions that a name gives are not always drawn.

Key:
[1] = tested on: porcine aortic smooth muscle cells; assay: Porcine smooth muscle cell antiproliferation, PDGF stimulation (3H thymidine incorporation); assay type: cell-based; details: PDGF-stimulated (human recombinant PDGF-AB)
Procedure: (§2) The ability of the compounds of the present invention to inhibit smooth muscle cell proliferation was established using isolated porcine aortic smooth muscle cells in a modification of the procedure of Castellot et al. J. Biol. Chem 257(19) 11256 (1982), as follows:
(§3) Fresh porcine aortas, scrupulously cleansed of fatty tissue, are rinsed in sterile phosphate-buffered saline with 2% antibiotic-antimycotic (100×) liquid (10,000 units of penicillin (base), 10,000 μg of streptomycin (base), and 25 μg of amphotericin B/mL utilizing penicillin G (sodium salt), streptomycin sulfate, and amphotericin B as Fungizone® in 0.85% saline, available from Gibco Laboratories, Grand Island Biological Co., Grand Island, N.Y.). The tissue is then digested in 10-15 mL of an enzyme solution containing collagenase type I, 165 U/mL; elastase type III, 15 U/mL; BSA, 2 mg/mL; and soybean trypsin inhibitor, 0.375 mg/mL, followed by incubation at 37° C. under 5% CO2 atmosphere for 10 to 15 minutes. After this treatment, the outer surface adventitia is removed by peeling with a forceps. The aorta is then longitudinally cut and laid open and the endothelial layer is removed by scraping.
(§4) The medial layer of cells is rinsed in the enzyme solution, and placed in a new 100 mm dish with 10 mL of enzyme solution. The medial layer of cells is minced using a fine pair of scissors and digested for 2-3 hours at 37° C. in 30 mL of fresh enzyme solution. After digestion, the medial tissue is homogenized using a sterile Pasteur pipette with a fire polished tip or an Eppendorf pipetter with a 200-1000 μL sterile pipette tip. The suspension is then centrifuged for 10 minutes at 8000 rpm and the pellet is suspended in 4-6 mL of fresh enzyme solution and plated onto 4-6 100 mm flasks with vented caps. The cells are then allowed to grow to confluence and split using 0.25% trypsin. The cells are evaluated for purity and overall quality using antibody to SMC actin.
(§5) The cells are assayed in early passage (generally passage 3-7) at sub-confluent conditions. Cultures are grown in 16 mm (24 well) multi-well culture dishes in media 199 supplemented with 10% fetal bovine serum and 2% antibiotic/antimycotic. At subconfluence, the cells are placed in a defined serum free, lymphocyte medium (AIM-V; Gibco) for 24-48 hours prior to initiating the experimental protocoL
(§6) The standard test procedure is initiated by addition of the test compound, ^3 H thymidine and serum or a specific growth factor to the serum deprived synchronized cells. Growth factor and serum stimulations are optimized for each cell type. The test compounds are added to each well at 50 fold dilution (20 μL/well) and the plates are incubated for 24-36 hours at 37° C. in 5% CO2 atmosphere. Test compounds are dissolved in 50% ethanol and assayed at 1, 10, and 100 μM. As a control, RG 50872 (Bilder, G. A.; et al., Am. J. Cell Physiol., 1991; 260: C721) is routinely assayed under the conditions of each cell preparation at a concentration of 5 μM.
(§7) At the completion of the experiment, the plates are placed on ice, washed three times with ice cold PBS and incubated in ice cold 10% trichloroacetic acid (TCA) for 30 minutes to remove acid soluble proteins. Each solution is transferred to a scintillation vial containing 0.4N HCl (500 μL/vial to neutralize NaOH) and each well is rinsed two times with water (500 μL) for a total volume of 2 mL/vial.
(§8) Data is quantitated by subjecting the vials to a scintillation counter, in triplicate, for both control and experimental samples. […] Experimental data is obtained from cells maximally stimulated with growth factor or serum and treated with a test compound. (The platelet-derived growth factor used in the assay was human recombinant PDGF-AB purchased from Upstate Biotechnology Inc., Lake Placid, N.Y.). Data is expressed as a percent of control from which IC50 s are determined.

[2] = tested on: porcine aortic smooth muscle cells; assay: Porcine smooth muscle cell antiproliferation, serum stimulation (3H thymidine incorporation); assay type: cell-based; details: serum-stimulated
Procedure: as §2, §3, §4, §5, §6, §7, §8

[3] = tested on: porcine smooth muscle cells; assay: Cytotoxicity, modified MTT assay, % viable cells; assay type: cell-based; parameters: dose or concentration left out as unconfirmed; details: serum-free medium, 24 hours, 37° C.
Procedure: (§1) To distinguish cytotoxicity from the ability of a compound to prevent proliferation, the test compounds were examined using a commercial modification of the MTT assay. Briefly, cells were grown in 24 well plates to 70-80% confluency. The cells were serum deprived for 24-48 hours prior to initiation of the experimental protocol. To insure that the MTT assay monitored toxicity rather than proliferation, the cells were incubated with […] test compound in fresh medium without serum for 24 hours at 37° C. in a humidified CO2 incubator. Upon completion of the compound treatment, MTT indicator dye was added for 4 hours at 37° C. Cells were then solubilized and aliquots from each well were transferred to a 96-well plate for analysis. Absorbance at 570 nm wavelength with a reference wavelength of 630 nm was recorded using an ELISA plate reader.

[4] = Cytotoxicity, modified MTT assay, % viable cells; assay type: cell-based, porcine; parameters: dose or concentration left out as unconfirmed; details: pig, smooth muscle cells, serum-free medium, 37° C.
Procedure: as §1

Row | Compound | IC50 ([1]; Sus scrofa) | inhibition at 20 µM ([2]; Sus scrofa, 20 μM) | viability at 24 h [4] | IC50 ([2]; Sus scrofa) | other results
1 | 4-[5-(Hydroxy-(phenyl)-methyl)-2-propyl -benzoimidazol-1-ylmethyl]-benzoic acid [Example 6] | – | – | – | – | IC50 [1]: 11.2 µM; Porcine Smooth Muscle Cell Antiproliferation, Serum, % Inhibition at 20 μM ([2]; 20 μM): 45.9%; Cytotoxicity, % Viable Cells [3]: 85.5%
2 | CCCc1nc2cc(C(=O)c3ccccc3)ccc2[nH]1 [Example 1, Phenyl-(2-propyl-1H-benzoimidazol-5-yl)-methanone] | 12.9 µM | 39.4% | 80% | – | –
3 | CCCc1nc2cc(C(=O)c3ccccc3)ccc2n1Cc1ccc(C(=O)OCC)cc1 [Example 2, 4-(5-Benzoyl-2-propyl-benzoimidazol-1-ylmethyl) -benzoic acid ethyl ester] | 1.17 µM | – | 100% | 1.04 µM | –
4 | CCCc1nc2ccc(C(=O)c3ccccc3)cc2n1Cc1ccc(C(=O)OCC)cc1 [Example 3, 4-(6-Benzoyl-2-propyl-benzoimidazol-1-ylmethyl) -benzoic acid ethyl ester] | 1.23 µM | – | 100% | 1.58 µM | –
5 | CCCc1nc2ccc(C(=O)c3ccccc3)cc2n1Cc1ccc(C(=O)O)cc1 [Example 4, 4-(6-Benzoyl-2-propyl-benzoimidazol-1-ylmethyl) benzoic acid] | – | 61.8% | 100% | – | Porcine Smooth Muscle Cell Antiproliferation, PDGF, % Inhibition (concentration not given) ([1]; concentration not given): 0%
6 | CCCc1nc2cc(C(=O)c3ccccc3)ccc2n1Cc1ccc(C(=O)O)cc1 [Example 5, 4-(5-Benzoyl-2-propyl-benzoimidazol-1-ylmethyl)-benzoic acid] | 15.9 µM | 41% | 78% | – | –
7 | CCCc1nc2cc(C(O)c3ccccc3)ccc2n1Cc1ccc(C(=O)O)cc1 (stereo not drawn) [Example 7, 4-[5-(Hydroxy-(phenyl)-methyl)-2-propyl-benzoimidazol-1-ylmethyl]-benzoic acid hydrochloride] | 17.6 µM | – | 85% | – | inhibition at 10 µM ([2]; Sus scrofa, 10 μM): 36%
8 | CCCc1nc2cc(C(=O)c3ccccc3)ccc2n1Cc1ccc(Cl)c(Cl)c1 [Example 8, [1-(3,4-Dichloro-benzyl)-2-propyl-1H-benzoimidazol-5-yl]-phenyl-methanone] | 0.096 to 0.465 µM | 90% | 100% | – | –
9 | COc1cc(-c2nc3cc(C(=O)c4ccccc4)ccc3[nH]2)ccc1O [Example 9, [2-(4-Hydroxy-3-methoxy-phenyl)1H-benzoimidazol-5-yl]-phenyl-methanone] | 3.74 to 4.14 µM | – | 100% | 8.03 to 11.4 µM | –
10 | CCCCCCOc1ccc(-c2nc3cc(C(=O)c4ccccc4)ccc3[nH]2)cc1OC [Example 10, [2-(4-Hexyloxy-3-methoxy-phenyl)-1H benzoimidazol-5-yl]phenyl-methanone] | 0.762 µM | – | 100% | 13.5 µM | –
11 | O=C(c1ccccc1)c1ccc2[nH]c(-c3ccc(OC(F)(F)F)cc3)nc2c1 [Example 11, Phenyl-[2-(4-trifluoromethoxy-phenyl)-1H -benzoimidazol-5-yl]methanone] | 7.7 µM | – | 100% | 1.82 µM | –
12 | COc1ccc(Cc2nc3cc(C(=O)c4ccccc4)ccc3[nH]2)cc1OC [Example 12, [2-(3,4-Dimethoxybenzyl)-1H-benzoimidazol-5-yl]-phenyl-methanone] | 0.081 to 0.14 µM | – | 100% | 7.74 µM | –
